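Where inhibition never reached the appropriate level, the endpoint shown equals the highest concentration tested. Otherwise, values were interpolated linearly from a five-concentration, 48-hour dose response in 96-well plates. At the TGI there is no net growth.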
Key:
Assay in all cases: NCI-60 cell line screen, 48 h
SF-268 CNS = test system: SF-268 CNS
K-562 leukemia = test system: K-562 leukemia
HCC-2998 colon = test system: HCC-2998 colon
EKVX NSCLC = test system: EKVX NSCLC
HOP-62 NSCLC = test system: HOP-62 NSCLC
SK-MEL-5 melanoma = test system: SK-MEL-5 melanoma
HL-60(TB) leukemia = test system: HL-60(TB) leukemia
SK-OV-3 ovarian = test system: SK-OV-3 ovarian
M14 melanoma = test system: M14 melanoma
OVCAR-8 ovarian = test system: OVCAR-8 ovarian
SW-620 colon = test system: SW-620 colon
TK-10 renal = test system: TK-10 renal
XF 498 CNS = test system: XF 498 CNS
HT29 colon = test system: HT29 colon
LOX IMVI melanoma = test system: LOX IMVI melanoma
OVCAR-5 ovarian = test system: OVCAR-5 ovarian
DLD-1 colon = test system: DLD-1 colon
DMS 273 small cell lung = test system: DMS 273 small cell lung
OVCAR-3 ovarian = test system: OVCAR-3 ovarian
CCRF-CEM leukemia = test system: CCRF-CEM leukemia
MOLT-4 leukemia = test system: MOLT-4 leukemia
ACHN renal = test system: ACHN renal
786-0 renal = test system: 786-0 renal
SNB-75 CNS = test system: SNB-75 CNS
NCI-H226 lung = test system: NCI-H226 lung
SF-295 CNS = test system: SF-295 CNS
A498 renal = test system: A498 renal
KM20L2 colon = test system: KM20L2 colon
NCI-H460 lung = test system: NCI-H460 lung
SK-MEL-28 melanoma = test system: SK-MEL-28 melanoma
UO-31 renal = test system: UO-31 renal
SK-MEL-2 melanoma = test system: SK-MEL-2 melanoma
CAKI-1 renal = test system: CAKI-1 renal
RXF 393 renal = test system: RXF 393 renal
SNB-19 CNS = test system: SNB-19 CNS
M19-MEL melanoma = test system: M19-MEL melanoma
NCI-H522 lung = test system: NCI-H522 lung
NCI-H23 lung = test system: NCI-H23 lung
UACC-257 melanoma = test system: UACC-257 melanoma
LXFL 529 NSCLC = test system: LXFL 529 NSCLC
UACC-62 melanoma = test system: UACC-62 melanoma
MALME-3M melanoma = test system: MALME-3M melanoma
SR leukemia = test system: SR leukemia
KM12 colon = test system: KM12 colon
A549 NSCLC = test system: A549 NSCLC
SF-539 CNS = test system: SF-539 CNS
HCT-116 colon = test system: HCT-116 colon
OVCAR-4 ovarian = test system: OVCAR-4 ovarian
SN12C renal = test system: SN12C renal
U251 CNS = test system: U251 CNS
SNB-78 CNS = test system: SNB-78 CNS
IGROV1 ovarian = test system: IGROV1 ovarian
COLO 205 colon = test system: COLO 205 colon
HOP-92 NSCLC = test system: HOP-92 NSCLC
HCT-15 colon = test system: HCT-15 colon
RPMI-8226 leukemia = test system: RPMI-8226 leukemia
HOP-18 NSCLC = test system: HOP-18 NSCLC

Measured: TGI

O=C(Cc1nc2ccccc2s1)Nc1ccc(Cl)cc1
not listed: HOP-92 NSCLC | HCT-15 colon | RPMI-8226 leukemia | HOP-18 NSCLC
> 100 µM: all other assays above

Cc1nnc(N=Nc2c(O)[nH]c3c(Cl)cc(Cl)cc23)n1N
not listed: SK-MEL-5 melanoma | XF 498 CNS | DMS 273 small cell lung | SNB-75 CNS
> 100 µM: all other assays above

— PubChem BioAssay (NCI)
